In patent US20240287139A1, “A NOVEL COMPOUND ACTING AGAINST A SELECT GROUP OF BACTERIA” (priority 2021, published 2024):
Values after ≈ are worked out from the molar mass of the structure shown. Where two headings read alike, the source gives them in different places. *1 amine or outer side, *2 acyl side, *3 side chain or, on linkers, in order; H or OH if unused. Where a SMILES comes first, the peptide text is derived from it. Bridges are numbered along the chain shown (N, C = ends). [ ]: non-standard residue; d: D form. The star is where a group is joined. ξ: configuration not given here. ξThr(3R)(O-yl) = C[C@@H](O[*:3])C(N[*:1])C(=O)[*:2]; βAsp = O=C(O)[C@H](CC(=O)[*:2])N[*:1]; His(π-Me) = Cn1cncc1C[C@H](N)C(=O)O; For = O=C*

Key:
[1] = test system: Mycobacterium tuberculosis H37Rv mc^26020; assay: microbe, parasite or virus in culture; type: cell-based
[2] = test system: Lactobacillus reuteri LTH5448; assay: microbe, parasite or virus in culture; type: cell-based; details: Limosilactobacillus reuteri; Lactobacillus reuteri LTH5448, anaerobic conditions
[3] = test system: Mycobacterium tuberculosis H37Rv mc^26020 mCherry; assay: microbe, parasite or virus in culture; type: cell-based
E. coli gyrase = E. coli gyrase (Escherichia coli, UniProt P0AES4+P0AES6); type: biochemical; details: 100 μM compound
[4] = target: E. coli topoisomerase IV (topo IV) (Escherichia coli, UniProt P0AFI2+P20083); type: biochemical; details: 100 μM compound; strong cleavage visible at 5 nM enzyme
[5] = test system: Mycobacterium tuberculosis H37Rv mc^26020 ΔbacA; assay: microbe, parasite or virus in culture; type: cell-based
[6] = test system: Salmonella enterica KLE 2601; assay: microbe, parasite or virus in culture; type: cell-based; details: KLE2601; Salmonella enterica KLE 2601, anaerobic conditions, human stool isolate
Escherichia coli ΔtolC = assay: microbe, parasite or virus in culture; type: cell-based
[7] = test system: Mycobacterium abscessus ATCC 19977; assay: microbe, parasite or virus in culture; type: cell-based; details: Mycobacteroides abscessus, ATCC19977
MtbGyrase [8] = target: T1, MtbGyrase (Mycobacterium tuberculosis, UniProt P9WG45+P9WG47); assay: biochemical; set-up: species or system M. tuberculosis; details: 20 nM MtbGyrase
[9] = test system: Staphylococcus aureus HG003; assay: microbe, parasite or virus in culture; type: cell-based
[10] = test system: commensal bacteria including Lactobacillus sp. and Bacteroides sp.; type: cell-based
wild type E. coli = assay: microbe, parasite or virus in culture; type: cell-based; details: Escherichia coli
[11] = test system: Mycobacterium smegmatis mc^2155; assay: microbe, parasite or virus in culture; type: cell-based; details: Mycolicibacterium smegmatis
[12] = test system: Clostridium perfringens KLE 2523; assay: microbe, parasite or virus in culture; type: cell-based; details: KLE2523
[13] = type: in vivo, mouse; details: intraperitoneally at 100 mg kg^−1, observed for 24 hours
[14] = test system: Veillonella ratti KLE 2365; assay: microbe, parasite or virus in culture; type: cell-based; details: KLE2365; Veillonella ratti KLE 2365, anaerobic conditions, human stool isolate
[15] = test system: Acinetobacter baumannii ATCC 17978; assay: microbe, parasite or virus in culture; type: cell-based; details: ATCC17978
HepG2 [16] = test system: HepG2
MtbGyrase [17] = target: T1, MtbGyrase; type: biochemical, M. tuberculosis; details: 100 μM compound, 0-20 nM enzyme
M. tuberculosis = assay: Microscopy, cell elongation; type: cell-based; details: 10×MIC, 48 hours of treatment
[18] = test system: M. tuberculosis H37Rv mc^26020; assay: Time-dependent killing; type: cell-based; details: 10×MIC
Escherichia coli ΔSbmA = assay: microbe, parasite or virus in culture; type: cell-based; details: Keio collection mutant
[19] = test system: Bacteroides fragilis KLE 2244; assay: microbe, parasite or virus in culture; type: cell-based; details: KLE2244; Bacteroides fragilis KLE 2244, anaerobic conditions, human stool isolate
Escherichia coli BW25113 = assay: microbe, parasite or virus in culture; type: cell-based
[20] = test system: Lactobacillus paracasei KLE 2504; assay: microbe, parasite or virus in culture; type: cell-based; details: Lacticaseibacillus paracasei, KLE2504; Lactobacillus paracasei KLE 2504, anaerobic conditions, human stool isolate
FaDu [21] = test system: FaDu
[22] = test system: Streptococcus parasanguinis KLE 2509; assay: microbe, parasite or virus in culture; type: cell-based; details: KLE2509; Streptococcus parasanguinis KLE 2509, anaerobic conditions, human stool isolate
[23] = test system: Klebsiella pneumoniae ATCC 700603; assay: microbe, parasite or virus in culture; type: cell-based; details: ATCC700603
E. coli WO153 = assay: Macromolecule incorporation assay; type: cell-based; details: 8×MIC
Protocol: Incorporation of ^14C-thymidine (DNA), ^14C-uridine (RNA), ^14C-L-amino acid mixture (protein), ^14C-acetic acid (fatty acid) and ^14C-acetyl-glucosamine (peptidoglycan) was determined in cells treated with 8×MIC of the compound of Formula IV (grey bars). Ciprofloxacin (8×MIC), rifampicin (8×MIC), chloramphenicol (8×MIC), triclosan (8×MIC) and fosfomycin (8×MIC) were used as controls (white bars). There were n=3 biologically independent samples.
Macromolecular synthesis assay against DNA, RNA, protein and fatty acid were analyzed by ImQuest BioSciences Inc. (MD, USA) with E. coli WO153 cells.

MtbGyrase [24] = target: T1, MtbGyrase; assay: DNA-stimulated ATPase assay (NADH-coupled); details: 250 nM gyrase, 100 μM drug
HEK293 [25] = test system: HEK293
[26] = test system: Escherichia coli ATCC25922; assay: microbe, parasite or virus in culture; type: cell-based
E. coli ATCC 25922 = assay: Septicemia model, survival; type: in vivo, mice; details: 1 h after infection
Protocol: The inventors next tested the compound of Formula IV in a simple model of septicemia infection with E. coli to evaluate its potential for activity in vivo. […] Mice were infected with E. coli ATCC25922 intraperitoneally for 1 hour followed by intraperitoneal administration of the compound of Formula IV.
Animal study was performed at Northeastern University, approved by Northeastern IACUC, and was performed according to institutional animal care and policies. Experiments were not randomized nor blinded, as it was not deemed necessary. Female CD-1 mice (20-25 g, experimentally naive, 6 weeks old) from Charles River were used for all studies. The compound of Formula IV was tested in a septicemia model against E. coli ATCC 25922. Mice were infected with 0.5 ml of E. coli ATCC 25922 suspension in BHI with 5% mucin (1×10^6 to 5×10^6) via intraperitoneal injection. This dose achieves >83% mortality within 24 h after infection. At 1 h after infection, mice were treated by the compound of Formula IV from 10 mg kg^−1 to 100 mg kg^−1 by intraperitoneal injection. Infection control mice were treated with 50 mg kg^−1 gentamicin as positive control. Survival was monitored for 120 h.

[27] = test system: Pseudomonas aeruginosa PA01; assay: microbe, parasite or virus in culture; type: cell-based
Escherichia coli MG1655 = assay: microbe, parasite or virus in culture; type: cell-based
HepG2 [28] = assay: cells; details: Homo sapiens, HepG2, read-out: Human cell line (IC50)
Escherichia coli WO153 = assay: microbe, parasite or virus in culture; type: cell-based
physchem = details: water
HEK293 [29] = assay: cells; details: Homo sapiens, HEK293, read-out: Human cell line (IC50)
[30] = test system: Bacteroides stercoris KLE 2537; assay: microbe, parasite or virus in culture; type: cell-based; details: KLE2537; Bacteroides stercoris KLE 2537, anaerobic conditions, human stool isolate
FaDu [31] = assay: cells; details: Homo sapiens, read-out: Human cell line (IC50)
[32] = test system: Enterococcus faecalis KLE 2341; assay: microbe, parasite or virus in culture; type: cell-based; details: KLE2341; Enterococcus faecalis KLE 2341, anaerobic conditions, human stool isolate
[33] = Mycobacterium tuberculosis, M. tuberculosis H37Rv mc^26020, read-out: MIC

T1 sequence (P9WG45 whole entry, looked up): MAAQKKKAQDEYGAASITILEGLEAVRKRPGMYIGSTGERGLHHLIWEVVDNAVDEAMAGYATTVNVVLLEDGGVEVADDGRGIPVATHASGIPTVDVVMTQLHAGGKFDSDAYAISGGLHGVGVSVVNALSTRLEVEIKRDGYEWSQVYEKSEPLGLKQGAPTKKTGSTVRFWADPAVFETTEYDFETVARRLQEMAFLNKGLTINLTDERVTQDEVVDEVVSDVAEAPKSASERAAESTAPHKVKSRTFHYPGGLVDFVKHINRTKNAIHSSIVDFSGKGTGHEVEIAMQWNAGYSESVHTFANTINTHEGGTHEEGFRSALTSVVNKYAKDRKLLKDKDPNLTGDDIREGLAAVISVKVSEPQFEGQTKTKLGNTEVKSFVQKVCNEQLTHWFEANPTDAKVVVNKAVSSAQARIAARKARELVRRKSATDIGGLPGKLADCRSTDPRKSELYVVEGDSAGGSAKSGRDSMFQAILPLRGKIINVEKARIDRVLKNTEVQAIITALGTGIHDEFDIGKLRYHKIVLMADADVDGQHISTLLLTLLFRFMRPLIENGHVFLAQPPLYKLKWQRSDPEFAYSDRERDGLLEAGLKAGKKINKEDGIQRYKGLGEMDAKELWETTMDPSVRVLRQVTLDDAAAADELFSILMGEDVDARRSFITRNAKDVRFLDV
T1 sequence (P9WG47 whole entry, looked up): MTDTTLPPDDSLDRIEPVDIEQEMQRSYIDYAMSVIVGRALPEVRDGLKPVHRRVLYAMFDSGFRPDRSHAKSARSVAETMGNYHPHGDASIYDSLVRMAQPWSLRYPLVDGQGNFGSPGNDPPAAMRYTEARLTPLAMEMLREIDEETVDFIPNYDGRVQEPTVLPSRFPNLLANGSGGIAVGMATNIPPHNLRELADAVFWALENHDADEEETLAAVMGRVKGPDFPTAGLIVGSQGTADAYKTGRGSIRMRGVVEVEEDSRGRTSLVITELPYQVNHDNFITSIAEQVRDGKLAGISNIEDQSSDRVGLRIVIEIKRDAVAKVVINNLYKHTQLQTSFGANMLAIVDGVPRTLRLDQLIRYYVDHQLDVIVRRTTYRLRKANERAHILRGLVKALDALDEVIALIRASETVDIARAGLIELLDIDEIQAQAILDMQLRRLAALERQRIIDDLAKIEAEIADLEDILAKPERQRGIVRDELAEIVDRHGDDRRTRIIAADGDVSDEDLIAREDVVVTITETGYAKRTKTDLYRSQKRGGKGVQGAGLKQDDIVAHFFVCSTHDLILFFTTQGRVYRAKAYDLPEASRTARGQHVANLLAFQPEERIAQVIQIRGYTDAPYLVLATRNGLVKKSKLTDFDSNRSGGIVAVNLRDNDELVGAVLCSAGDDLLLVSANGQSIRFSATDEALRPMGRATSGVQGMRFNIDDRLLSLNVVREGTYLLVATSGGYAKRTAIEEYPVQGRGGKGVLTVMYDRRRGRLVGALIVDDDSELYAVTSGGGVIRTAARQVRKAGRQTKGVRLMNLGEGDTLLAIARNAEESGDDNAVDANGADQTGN
Chain of E. coli gyrase (P0AES4 whole entry, one chain of several): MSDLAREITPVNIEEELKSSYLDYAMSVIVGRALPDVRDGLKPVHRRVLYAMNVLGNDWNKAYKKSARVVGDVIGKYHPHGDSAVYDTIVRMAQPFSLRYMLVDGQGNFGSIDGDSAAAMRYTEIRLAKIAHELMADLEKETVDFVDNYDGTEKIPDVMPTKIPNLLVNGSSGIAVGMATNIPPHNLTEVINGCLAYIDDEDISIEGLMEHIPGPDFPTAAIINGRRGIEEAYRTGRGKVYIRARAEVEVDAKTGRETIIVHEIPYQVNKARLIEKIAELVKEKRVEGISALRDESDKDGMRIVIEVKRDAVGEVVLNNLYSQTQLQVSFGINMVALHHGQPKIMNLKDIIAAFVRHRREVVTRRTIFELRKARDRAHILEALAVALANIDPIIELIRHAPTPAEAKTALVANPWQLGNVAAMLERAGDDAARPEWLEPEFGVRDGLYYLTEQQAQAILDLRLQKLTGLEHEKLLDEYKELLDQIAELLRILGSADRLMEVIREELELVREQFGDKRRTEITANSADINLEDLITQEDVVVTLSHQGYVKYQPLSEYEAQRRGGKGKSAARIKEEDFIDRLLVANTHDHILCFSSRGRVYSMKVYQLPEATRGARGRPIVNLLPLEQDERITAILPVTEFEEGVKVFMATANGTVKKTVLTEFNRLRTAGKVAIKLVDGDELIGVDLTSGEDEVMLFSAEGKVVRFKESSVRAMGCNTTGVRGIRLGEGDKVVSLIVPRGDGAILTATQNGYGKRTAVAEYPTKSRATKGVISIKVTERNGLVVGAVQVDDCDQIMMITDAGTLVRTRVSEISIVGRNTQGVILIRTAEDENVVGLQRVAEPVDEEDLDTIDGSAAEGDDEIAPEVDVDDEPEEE
Chain of E. coli topoisomerase IV (topo IV) (P20083 whole entry): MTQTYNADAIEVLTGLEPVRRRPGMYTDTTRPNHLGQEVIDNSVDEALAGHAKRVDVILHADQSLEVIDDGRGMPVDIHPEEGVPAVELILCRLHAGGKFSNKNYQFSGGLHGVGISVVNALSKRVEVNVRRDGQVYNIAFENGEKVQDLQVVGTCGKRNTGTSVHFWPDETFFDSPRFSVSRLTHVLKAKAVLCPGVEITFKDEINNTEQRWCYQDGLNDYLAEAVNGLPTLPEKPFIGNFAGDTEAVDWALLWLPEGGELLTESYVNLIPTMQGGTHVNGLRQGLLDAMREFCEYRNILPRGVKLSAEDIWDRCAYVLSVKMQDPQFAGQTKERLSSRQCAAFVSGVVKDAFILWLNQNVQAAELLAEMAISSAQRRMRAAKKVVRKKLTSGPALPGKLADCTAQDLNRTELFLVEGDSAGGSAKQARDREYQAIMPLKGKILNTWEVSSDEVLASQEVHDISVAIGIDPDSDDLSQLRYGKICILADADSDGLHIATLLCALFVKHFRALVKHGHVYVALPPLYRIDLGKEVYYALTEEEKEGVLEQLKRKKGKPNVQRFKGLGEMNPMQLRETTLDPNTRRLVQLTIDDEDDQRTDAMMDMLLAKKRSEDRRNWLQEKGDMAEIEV
Chain of E. coli topoisomerase IV (topo IV) (P0AFI2 whole entry): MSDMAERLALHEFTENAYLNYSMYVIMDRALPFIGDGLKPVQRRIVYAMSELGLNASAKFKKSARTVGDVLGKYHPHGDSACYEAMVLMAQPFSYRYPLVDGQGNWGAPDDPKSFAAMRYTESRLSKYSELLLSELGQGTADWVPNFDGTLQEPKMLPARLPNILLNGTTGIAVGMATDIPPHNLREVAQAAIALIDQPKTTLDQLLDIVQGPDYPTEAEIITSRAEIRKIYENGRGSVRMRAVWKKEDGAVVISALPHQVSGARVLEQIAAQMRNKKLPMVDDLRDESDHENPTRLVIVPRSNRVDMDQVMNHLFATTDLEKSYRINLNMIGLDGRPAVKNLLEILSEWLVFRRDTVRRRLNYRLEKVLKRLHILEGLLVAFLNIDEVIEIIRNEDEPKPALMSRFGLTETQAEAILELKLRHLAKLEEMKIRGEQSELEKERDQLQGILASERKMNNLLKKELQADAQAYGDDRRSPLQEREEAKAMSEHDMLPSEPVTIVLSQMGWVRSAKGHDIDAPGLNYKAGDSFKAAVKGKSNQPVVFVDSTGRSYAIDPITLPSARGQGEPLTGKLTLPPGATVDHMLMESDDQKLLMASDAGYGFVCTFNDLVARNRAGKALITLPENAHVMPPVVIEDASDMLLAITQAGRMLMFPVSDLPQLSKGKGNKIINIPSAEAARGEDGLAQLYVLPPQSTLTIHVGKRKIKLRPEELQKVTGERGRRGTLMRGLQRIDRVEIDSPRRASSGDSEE

COc1c(N2C[C@@H]3CCCN[C@@H]3C2)c(F)cc2c(=O)c(C(=O)O)cn(C3CC3)c12 [Moxifloxacin, reference compound]
MIC [1, 33]: 0.125 µg/mL (≈ 0.311 µM)

C[C@H]1OC(=O)C[C@@H](C(=O)O)NC(=O)[C@H](CO)NC(=O)[C@@H](CCCNC(=N)N)NC(=O)CNC(=O)[C@H](Cc2ccccc2)NC(=O)[C@@H](CO)NC(=O)C[C@@H](C(=O)O)NC(=O)[C@H](Cc2cncn2C)NC(=O)C1NC(=O)[C@@H](CCCNC(=N)N)NC(=O)[C@@H](NC(=O)[C@H](Cc1c[nH]c2ccccc12)NC=O)[C@@H](C)O (stereo partly drawn) [compound of Formula IV] (For-WT[dR][ξThr(3R)(O-yl)][His(π-Me)][βAsp][dS]FG[dR]SD-OH; ester 4-12)
MIC [2]: > 128 µg/mL | MIC [3]: 0.0625 µg/mL | inhibition of DNA supercoiling by gyrase compared with supercoil relaxation by topo IV (E. coli gyrase): more potent inhibitor of DNA supercoiling by gyrase | DNA cleavage by E. coli gyrase (E. coli gyrase; strong cleavage visible at 5 nM enzyme): stimulated DNA cleavage | DNA cleavage by E. coli topo IV [4]: stimulated DNA cleavage | MIC [5]: 16 µg/mL | MIC [6]: 128 µg/mL | MIC of tolC deletion mutant, times higher as compared to E. coli WO153 (Escherichia coli ΔtolC): 4 times | MIC of tolC deletion mutant, times lower than in the wild type (Escherichia coli ΔtolC): 64 times | MIC (Escherichia coli ΔtolC; Escherichia coli ΔtolC, Keio collection mutant): 0.25 µg/mL | MIC (Escherichia coli ΔtolC; Escherichia coli, E. coli tolC deletion mutant, read-out: MIC): 0.25 µg/mL | MIC [7]: 16 µg/mL | DNA cleavage in the absence of ATP (MtbGyrase [8]; absence of ATP): little to no cleavage | IC50 (MtbGyrase [8]; in the presence of ATP): ~1000 nM | MIC [9]: 128 µg/mL | activity against commensal bacteria [10]: no activity | MIC (wild type E. coli): 16 µg/mL | MIC [11]: 8 µg/mL | MIC [12]: 64 µg/mL | toxicity in a mouse, survival [13]: no indications of toxicity | MIC [14]: > 128 µg/mL | MIC ([1]; Mycobacterium tuberculosis H37Rv mc^26020): 0.25 µg/mL | MIC [1, 33]: 0.25 µg/mL | MIC [15]: 128 µg/mL | toxicity against human cell line (HepG2 [16]): no toxicity | DNA cleavage by MtbGyrase (MtbGyrase [17]): induced DNA cleavage | supercoiling activity of MtbGyrase (MtbGyrase [17]): inhibited the supercoiling activity | cell length compared to nontreated cells (M. tuberculosis): approximately 2 times | killing of exponentially growing M. tuberculosis ([18]; exponential cells): highly bactericidal | killing of stationary M. tuberculosis ([18]; stationary cells): highly bactericidal | MIC (Escherichia coli ΔSbmA): 128 µg/mL | MIC [19]: 64 µg/mL | MIC (Escherichia coli BW25113): 16 µg/mL | MIC [20]: > 128 µg/mL | toxicity against human cell line (FaDu [21]): no toxicity | MIC [22]: > 128 µg/mL | MIC [23]: 32 µg/mL | effect on DNA synthesis (^14C-thymidine incorporation) (E. coli WO153): inhibits DNA synthesis | effect on RNA, protein and fatty acid synthesis (E. coli WO153): less of an effect | overall rate (vmax) of ATPase activity (MtbGyrase [24]): 45±7.2 ATP·s^−1 per enzyme | toxicity against human cell line (HEK293 [25]): no toxicity | MIC [26]: 8 µg/mL | efficacy, septicemia infection with E. coli ATCC25922 (E. coli ATCC 25922; 100 mg kg^−1 dose intraperitoneal): completely protected | efficacy, septicemia infection with E. coli ATCC25922 (E. coli ATCC 25922; single dose of 25 mg kg^−1 intraperitoneal): significant efficacy | MIC [27]: > 128 µg/mL | MIC (Escherichia coli MG1655): 16 µg/mL | IC50 (HepG2 [28]): > 128 µg/mL | MIC (Escherichia coli WO153; Escherichia coli WO153): 0.0625 µg/mL | MIC (Escherichia coli WO153; Escherichia coli, E. coli WO153, compromised penetration barrier, read-out: MIC): 0.0625 µg/mL | solubility (physchem): > 40 mg/mL | IC50 (HEK293 [29]): > 128 µg/mL | MIC [30]: > 128 µg/mL | IC50 (FaDu [31]): > 128 µg/mL | MIC [32]: > 128 µg/mL
